Holding throughout (assay type): cell-based
One test deals with HEL92.1.7. Nature of the test: Cell growth inhibition assay, blood cancer cell line HEL92.1.7. Conditions: Homo sapiens, HEL 92.1.7, HEL92.1.7 blood cancer cell line. The procedure: The inhibitory effects of the compounds of the present invention against the growth of cancer cells were evaluated as shown below. The cancer cell lines including stomach cancer cell line (AGS), breast cancer cell lines (MDA-MB-231, MDA-MB-468, and BT-549), prostate cancer cell lines (LNCaP and DU-145), colon cancer cell line (HCT116), ovarian cancer cell line (SW626), liver cancer cell line (Hep3B), kidney cancer cell line (ACHN), lung cancer cell line (NCI-H23) and blood cancer cell lines (HEL92.1.7 and U266) were cultured under the protocol provided by each supplier. A medium supplemented with 10 ng/mL of IL-6 was used for LNCaP, a prostate cancer cell line, when treated with a drug. Each type of cells to be used in experiments were sub-cultured in a 96-well plate by counting the exact number of cells using Tali™ Image-based Cytometer (Life Technologies). In a 96-well plate, AGS, HCT116, and DU-145 were employed with 3,000 cells/well; NCI-H23, SW626, Hep3B, ACHN, BT-549, MDA-MB-231, HEL92.1.7, and U266 were employed with 5,000 cells/well; and LNCaP and MDA-MB-468 were employed with 10,000 cells/well. The cells were treated with the compounds listed in Examples which were diluted in various concentrations. Upon completion of the compounds treatment, AGS, HCT116, SW626, DU145, NCI-H23, Hep3B, ACHN, BT-549, LNCaP, HEL92.1.7, and U266 cells were cultured at 37° C. under 5% CO2 for from 72 to 96 hours, and MDA-MB-231 and MDA-MB-468 cells were cultured at 37° C. in air for from 72 to 96 hours. Subsequently, the cells were observed under microscope and drug precipitation and particular findings were investigated and recorded. And then, the 96-well plate was placed at room temperature for 30 minutes, added with 20 μL/well of CellTiter-Glo solution (Cat No. G7573, Promega) and shaken for 10 minutes, followed by being subjected to the measurement using PHERAstar™ microplate reader (BMG LABTECH) according to the supplier's general luminometer protocol. Wells where only culture liquid added without cell plating were used as a negative control, whereas wells where culture liquid containing 0.1% DMSO instead of the compounds listed in Examples were used as a positive control.

For a further test, the target named is T1, STAT3 (Homo sapiens, UniProt P40763).
T1 construct: plasmid pSTAT3-TA-luc), which contains a stably operating STAT3 promoter; endogenous in cells
T1 sequence (P40763 whole entry): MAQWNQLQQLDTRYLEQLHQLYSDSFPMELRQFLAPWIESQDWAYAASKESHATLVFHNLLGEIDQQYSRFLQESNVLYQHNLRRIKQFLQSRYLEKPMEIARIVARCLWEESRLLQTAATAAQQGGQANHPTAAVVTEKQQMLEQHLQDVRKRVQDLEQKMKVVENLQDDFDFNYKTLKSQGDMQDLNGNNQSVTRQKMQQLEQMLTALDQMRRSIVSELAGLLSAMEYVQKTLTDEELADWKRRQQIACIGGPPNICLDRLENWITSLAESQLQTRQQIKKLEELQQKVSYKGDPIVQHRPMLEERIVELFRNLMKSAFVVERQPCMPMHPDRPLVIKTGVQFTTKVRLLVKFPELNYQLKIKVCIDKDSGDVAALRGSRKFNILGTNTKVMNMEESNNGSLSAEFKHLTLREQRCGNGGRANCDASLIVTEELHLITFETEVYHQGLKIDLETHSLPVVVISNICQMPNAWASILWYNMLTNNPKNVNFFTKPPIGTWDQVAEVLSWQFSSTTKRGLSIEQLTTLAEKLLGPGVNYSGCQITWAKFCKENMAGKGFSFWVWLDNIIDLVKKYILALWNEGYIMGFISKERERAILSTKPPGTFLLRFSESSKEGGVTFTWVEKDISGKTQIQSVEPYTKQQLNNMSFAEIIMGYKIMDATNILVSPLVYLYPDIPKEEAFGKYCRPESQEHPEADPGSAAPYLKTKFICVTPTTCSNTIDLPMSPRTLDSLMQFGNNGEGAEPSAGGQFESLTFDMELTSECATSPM
Nature of the test: STAT3 reporter gene assay (luciferase), LNCaP stable cell line (pSTAT3-TA-luc), IL-6 stimulation. Put shortly: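 Cytotoxicity was run on a duplicate plate with CellTiter-Glo, while the other plate gave luciferase read-outs from lysed LNCaP pSTAT3-TA-luc reporter cells. Cells were treated with graded compound concentrations plus IL-6 (10 ng/mL final) for 24–48 h in 3% DCC-FBS medium. Unstimulated and stimulated wells served as negative and positive controls.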
(In a reporter assay the amount or activity of a reporter protein is the signal.)

In a further test the test system is LNCaP. The experiment in a line: Cell growth inhibition assay, prostate cancer cell line LNCaP (medium with 10 ng/mL IL-6). Conditions: Homo sapiens, medium supplemented with 10 ng/mL of IL-6, 10,000 cells/well.
The next test relates to DU-145. The experiment in a line: Cell growth inhibition assay, prostate cancer cell line DU-145. Particulars: Homo sapiens, DU-145 prostate cancer cell line. Put shortly:
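Viability by CellTiter-Glo luminescence after 72–96 h of compound dosing at 37° C. under 5% CO2; DU-145 and HCT116 seeded at 3,000 cells/well, SW626 at 5,000 cells/well.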

In patent US10562912B2 (C&C Research Laboratories, priority 2013, dated 2020) one finds IC50 data, which are given here for 15 compounds.

Molecules are shown by their SMILES. A value given as a limit tells only on which side of the number the result lay.

For `CN(C)CCOc1cc(OC(F)(F)F)cc(C(C)(C)c2cc(Cl)cc(NC(=O)c3cc4cc(NS(C)(=O)=O)ccc4s3)c2)c1` [Example 94, N-(3-chloro-5-(2-(3-(2-(dimethylamino)ethoxy)-5-(trifluoromethoxy)phenyl)propan-2-yl)phenyl)-5-(methylsulfonamido)benzo[b]thiophene-2-carboxamide], the IC50 (as a rule, the concentration at which inhibition is half-maximal) in the test on HEL92.1.7 worked out at 0.35 µM; against STAT3, 1.12 µM; in the test with LNCaP, 0.27 µM; in the test on DU-145, 0.2 µM.

Regarding `CC(C)(C)OC(=O)N1CCC(Oc2cc(OC(F)(F)F)cc(C(C)(C)c3cc(Cl)cc(NC(=O)c4cc5cc(NS(C)(=O)=O)ccc5s4)c3)c2)CC1` [Example 95, tert-butyl 4-(3-(2-(3-chloro-5-(5-(methylsulfonamido)benzo[b]thiophene-2-carboxamido)phenyl)propan-2-yl)-5-(trifluoromethoxy)phenoxy)piperidine-1-carboxylate], the IC50 is 0.69 µM with HEL92.1.7, 0.11 µM against STAT3, 0.015 µM with LNCaP and 0.011 µM with DU-145.

As to `CC(C)(c1cc(Cl)cc(NC(=O)c2cc3cc(NS(C)(=O)=O)ccc3s2)c1)c1cc(OC2CCNCC2)cc(OC(F)(F)F)c1` [Example 96, N-(3-chloro-5-(2-(3-(piperidin-4-yloxy)-5-(trifluoromethoxy)phenyl)propan-2-yl)phenyl)-5-(methylsulfonamido)benzo[b]thiophene-2-carboxamide], the IC50 was above 1.1 µM with HEL92.1.7, 3.4 µM against STAT3, above 1.1 µM in the test on LNCaP and above 1.1 µM with DU-145.

For `CC(C)Oc1cc(OC(F)(F)F)cc(C(C)(C)c2cc(Cl)cc(NC(=O)c3cc4cc(NS(=O)(=O)N5CCOCC5)ccc4s3)c2)c1` [Example 103, N-(3-chloro-5-(2-(3-isopropoxy-5-(trifluoromethoxy)phenyl)propan-2-yl)phenyl)-5-(morpholine-4-sulfonamido)benzo[b]thiophene-2-carboxamide], the IC50 in the test on HEL92.1.7 was determined as 0.16 µM; at STAT3, 0.11 µM; with LNCaP it was 0.035 µM; in the test on DU-145, 0.045 µM.

For the compound `Cn1cc(Cc2cc(OC(F)(F)C(F)F)cc(C(C)(C)c3cc(Cl)cc(NC(=O)c4cc5cc(NS(C)(=O)=O)ccc5s4)c3)c2)cn1` [Example 138, N-(3-chloro-5-(2-(3-((1-methyl-1H-pyrazol-4-yl)methyl)-5-(1,1,2,2-tetrafluoroethoxy)phenyl)propan-2-yl)phenyl)-5-(methylsulfonamido) benzo[b]thiophene-2-carboxamide], the IC50 stood at 0.26 µM in the test on HEL92.1.7, 0.02 µM against STAT3, 0.054 µM in the test with LNCaP and 0.018 µM with DU-145.

`CN(C)S(=O)(=O)N1CCN(Cc2cc(OC(F)(F)C(F)F)cc(C(C)(C)c3cc(Br)cc(NC(=O)c4cc5cc(NS(C)(=O)=O)ccc5s4)c3)c2)CC1` [Example 139, N-(3-bromo-5-(2-(3-((4-(N,N-dimethylsulfamoyl)piperazin-1-yl)methyl)-5-(1,1,2,2-tetrafluoroethoxy)phenyl)propan-2-yl)phenyl)-5-(methylsulfonamido)benzo[b]thiophene-2-carboxamide]: the IC50 with HEL92.1.7 is 0.69 µM; at STAT3, 0.11 µM; in the test with LNCaP, 0.17 µM; in the test with DU-145, 0.073 µM.

In the case of `CC(C)(c1cc(F)cc(NC(=O)c2cc3cc(NS(C)(=O)=O)ccc3s2)c1)c1cc(CN2CCOCC2)cc(OC(F)(F)C(F)F)c1` [Example 140, N-(3-fluoro-5-(2-(3-(morpholinomethyl)-5-(1,1,2,2-tetrafluoroethoxy)phenyl)propan-2-yl)phenyl)-5-(methylsulfonamido)benzo[b]thiophene-2-carboxamide], the IC50 in the test on HEL92.1.7 worked out at 0.3 µM; at STAT3, 0.09 µM; with LNCaP, 0.13 µM; in the test on DU-145, 0.053 µM.

As for `CC(C)(c1cc(Br)cc(NC(=O)c2cc3cc(NS(C)(=O)=O)ccc3s2)c1)c1cc(CN2CCN(C3COC3)CC2)cc(OC(F)(F)C(F)F)c1` [Example 141, N-(3-bromo-5-(2-(3-((4-(oxetan-3-yl)piperazin-1-yl)methyl)-5-(1,1,2,2-tetrafluoroethoxy)phenyl)propan-2-yl)phenyl)-5-(methylsulfonamido)benzo[b]thiophene-2-carboxamide], the IC50 in the test on HEL92.1.7 was determined as 1.05 µM; on STAT3, 0.38 µM; in the test with LNCaP, 0.36 µM; in the test with DU-145, 0.14 µM.

For the compound `CC(C)Oc1cc(-c2ccnn2C)cc(C(C)(C)c2cc(Cl)cc(NC(=O)c3cc4cc(NS(C)(=O)=O)ccc4s3)c2)c1` [Example 142, N-(3-chloro-5-(2-(3-isopropoxy-5-(1-methyl-1H-pyrazol-5-yl)phenyl)propan-2-yl)phenyl)-5-(methylsulfonamido)benzo[b]thiophene-2-carboxamide], the IC50 in the test on HEL92.1.7 is 0.33 µM; on STAT3 it was 0.13 µM; in the test on LNCaP it was 0.33 µM; in the test on DU-145, 0.09 µM.

Turning to `CC(C)Oc1cc(-c2cnn(C)c2)cc(C(C)(C)c2cc(Cl)cc(NC(=O)c3cc4cc(NS(C)(=O)=O)ccc4s3)c2)c1` [Example 143, N-(3-chloro-5-(2-(3-isopropoxy-5-(1-methyl-1H-pyrazol-4-yl)phenyl)propan-2-yl)phenyl)-5-(methylsulfonamido)benzo[b]thiophene-2-carboxamide], the IC50 in the test on HEL92.1.7 was found to be 0.48 µM; against STAT3, 0.29 µM; in the test with LNCaP, 0.47 µM; with DU-145 it was 0.18 µM.

On to `CC(C)Oc1cc(N2CC[N+](C)([O-])CC2)cc(C(C)(C)c2cc(Cl)cc(NC(=O)c3cc4cc(NS(C)(=O)=O)ccc4s3)c2)c1` [Example 144], for which the IC50 with HEL92.1.7 is above 1.1 µM; at STAT3 it was 5.2 µM; in the test with LNCaP, 2.6 µM; with DU-145, 1 µM.

Regarding `CC(C)Oc1cc(N2CCOCC2)cc(C(C)(C)c2cc(Cl)cc(NC(=O)c3cc4cc(NS(C)(=O)=O)ccc4s3)c2)c1` [Example 145, N-(3-chloro-5-(2-(3-isopropoxy-5-morpholinophenyl)propan-2-yl)phenyl)-5-(methylsulfonamido)benzo[b]thiophene-2-carboxamide], the IC50 with HEL92.1.7 is 0.16 µM; at STAT3, 0.067 µM; in the test on LNCaP it was 0.04 µM; in the test on DU-145 it was 0.06 µM.

Take `CC(C)Oc1cc(N2CCCC2)cc(C(C)(C)c2cc(Cl)cc(NC(=O)c3cc4cc(NS(C)(=O)=O)ccc4s3)c2)c1` [Example 146, N-(3-chloro-5-(2-(3-isopropoxy-5-(pyrrolidin-1-yl)phenyl)propan-2-yl)phenyl)-5-(methylsulfonamido)benzo[b]thiophene-2-carboxamide]: the IC50 in the test with HEL92.1.7 came out at 0.32 µM; against STAT3, 0.073 µM; with LNCaP, 0.022 µM; with DU-145, 0.019 µM.

On to `CC(C)Oc1cc(N2CCN(C)CC2)cc(C(C)(C)c2cc(Cl)cc(NC(=O)c3cc4cc(NS(C)(=O)=O)ccc4s3)c2)c1` [Example 147, N-(3-chloro-5-(2-(3-isopropoxy-5-(4-methylpiperazin-1-yl)phenyl)propan-2-yl)phenyl)-5-(methylsulfonamido)benzo[b]thiophene-2-carboxamide], for which the IC50 worked out at 1.04 µM in the test on HEL92.1.7, 0.67 µM against STAT3, 0.8 µM in the test with LNCaP and 0.47 µM in the test with DU-145.

`COc1cc(OC(F)(F)F)cc(C(C)(C)c2cc(Cl)nc(NC(=O)c3cc4cc(NS(C)(=O)=O)ccc4s3)c2)c1` [Example 148, N-(6-chloro-4-(2-(3-methoxy-5-(trifluoromethoxy)phenyl)propan-2-yl)pyridin-2-yl)-5-(methylsulfonamido)benzo[b]thiophene-2-carboxamide]: the IC50 in the test on HEL92.1.7 is 1 µM; against STAT3 it was above 10 µM; with LNCaP, 0.58 µM; in the test on DU-145, 0.38 µM.
